Test: Visible absorption of salt-forming type dyes (λmax)
Format: physicochemical
Details: spectra of dyes 1 and 4 in methanol solvent
Procedure: A structure of the dye is shown in the following formula, and hue and maximum absorption wavelength (λmax) are shown in Table. 1.
A structure of each salt-forming type dye is shown in the following formula, respectively. 1. [drawing 5]
Rhodamine 6 GCP (C.I. Basic Red) (140 parts, 0.3 mols) as a cation component was dissolved in water with stirring to prepare a 3% aqueous solution, which was then filtered. Thereafter, this solution (pH 2 to 4) was added dropwise to the dyestuff solution over 50 minutes, followed by stirring at 40° to 50° C. for 3 hours. The solution was heated to 65° C. to form a grit, followed by filtration, rinsing and further drying to obtain 200 parts of a powdered red salt-forming type dye (dye 4) having a structure of the following formula. It was confirmed that the resulting dye is a salt-forming type dye having n (2<n<3). 1. [drawing 6]
It was confirmed that the resulting dye has a structure of the following formula. 1. [drawing 7]
It was confirmed that the resulting dye has a structure of the following formula. 1. [drawing 8]

SMILES: Cc1nn(-c2ccccc2)c(O)c1N=Nc1ccc(-c2ccc(N=Nc3c(C)nn(-c4ccccc4)c3O)cc2S(=O)(=O)O)c(S(=O)(=O)O)c1 [dye 7]
- Salt-forming type dye λmax (maximum absorption wavelength) (listed as Comp. Ex. 1): 422 nm

SMILES: Cc1nn(-c2ccccc2)c(O)c1N=Nc1ccc(-c2ccc(N=Nc3c(C)nn(-c4ccccc4)c3O)cc2S(=O)(=O)O)c(S(=O)(=O)O)c1 [dye 8]
- Salt-forming type dye λmax (maximum absorption wavelength) (listed as Comp. Ex. 2): 422 nm

SMILES: Cc1nn(-c2ccccc2)c(O)c1N=Nc1ccc(-c2ccc(N=Nc3c(C)nn(-c4ccccc4)c3O)cc2S(=O)(=O)O)c(S(=O)(=O)O)c1 [dye 9]
- Salt-forming type dye λmax (maximum absorption wavelength) (listed as Comp. Ex. 3): 525 nm

SMILES: Cc1nn(-c2ccccc2)c(O)c1N=Nc1ccc(-c2ccc(N=Nc3c(C)nn(-c4ccccc4)c3O)cc2S(=O)(=O)O)c(S(=O)(=O)O)c1 [dye 10]
- Salt-forming type dye λmax (maximum absorption wavelength) (listed as Comp. Ex. 4): 578 nm

— patent publication US5281264A, “Salt-forming type dye and ink composition” (Orient Chemical Industries, Ltd., priority 1992, dated 1994)
